pIC50: −log10 of the molar value.
How the values were obtained:
Integrin alpha-4/beta-1 [1] = target: T1, Integrin alpha-4/beta-1 (Homo sapiens, UniProt P05556+P13612); assay: In vitro inhibition of [125I]VCAM-Ig binding to very late antigen -4 on jurkat cells.; format: cell-based
Rattus norvegicus [2] = species on record: Rattus norvegicus; assay: Half-life was determined in Dawley rat; conditions: in vivo
[3] = Clearance in Dawley rat; format: ADME, organism-based; conditions: Sprague-Dawley, plasma, read-out: Clp
[4] = Bioavailability in rat (Sprague-Dawley); format: ADME, organism-based; conditions: in vivo
Rattus norvegicus [5] = species on record: Rattus norvegicus; assay: Volume of distribution at steady state in Dawley rat; conditions: in vivo
Integrin alpha-4/beta-1 [6] = target: T1, Integrin alpha-4/beta-1; assay: Inhibition of [125I]-VCAM-Ig binding to very late antigen -4 (VLA-4) on Jurkat cells at 4 uM; format: cell-based

T1 sequence (P05556 whole entry): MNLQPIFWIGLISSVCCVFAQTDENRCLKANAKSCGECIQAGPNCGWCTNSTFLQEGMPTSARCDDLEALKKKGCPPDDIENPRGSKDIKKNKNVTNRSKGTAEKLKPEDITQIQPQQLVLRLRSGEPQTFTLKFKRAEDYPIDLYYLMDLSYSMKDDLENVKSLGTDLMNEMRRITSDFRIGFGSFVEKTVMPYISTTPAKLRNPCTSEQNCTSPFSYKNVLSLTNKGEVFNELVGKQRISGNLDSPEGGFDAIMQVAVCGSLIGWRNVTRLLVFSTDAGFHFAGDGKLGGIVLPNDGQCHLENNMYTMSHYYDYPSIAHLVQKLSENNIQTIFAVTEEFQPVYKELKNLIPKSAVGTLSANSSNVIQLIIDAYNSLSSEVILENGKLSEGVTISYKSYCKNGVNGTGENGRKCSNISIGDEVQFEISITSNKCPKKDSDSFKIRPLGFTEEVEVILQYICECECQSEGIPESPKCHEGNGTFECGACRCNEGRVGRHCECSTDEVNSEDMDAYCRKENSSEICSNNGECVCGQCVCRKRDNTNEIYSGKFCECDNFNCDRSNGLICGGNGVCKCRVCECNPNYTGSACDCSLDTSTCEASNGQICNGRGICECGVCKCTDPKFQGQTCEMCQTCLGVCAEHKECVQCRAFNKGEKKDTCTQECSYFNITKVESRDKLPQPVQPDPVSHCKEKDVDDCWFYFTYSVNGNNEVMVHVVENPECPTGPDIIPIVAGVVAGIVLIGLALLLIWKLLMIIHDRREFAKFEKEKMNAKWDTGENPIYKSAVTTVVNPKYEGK
T1 sequence (P13612 whole entry): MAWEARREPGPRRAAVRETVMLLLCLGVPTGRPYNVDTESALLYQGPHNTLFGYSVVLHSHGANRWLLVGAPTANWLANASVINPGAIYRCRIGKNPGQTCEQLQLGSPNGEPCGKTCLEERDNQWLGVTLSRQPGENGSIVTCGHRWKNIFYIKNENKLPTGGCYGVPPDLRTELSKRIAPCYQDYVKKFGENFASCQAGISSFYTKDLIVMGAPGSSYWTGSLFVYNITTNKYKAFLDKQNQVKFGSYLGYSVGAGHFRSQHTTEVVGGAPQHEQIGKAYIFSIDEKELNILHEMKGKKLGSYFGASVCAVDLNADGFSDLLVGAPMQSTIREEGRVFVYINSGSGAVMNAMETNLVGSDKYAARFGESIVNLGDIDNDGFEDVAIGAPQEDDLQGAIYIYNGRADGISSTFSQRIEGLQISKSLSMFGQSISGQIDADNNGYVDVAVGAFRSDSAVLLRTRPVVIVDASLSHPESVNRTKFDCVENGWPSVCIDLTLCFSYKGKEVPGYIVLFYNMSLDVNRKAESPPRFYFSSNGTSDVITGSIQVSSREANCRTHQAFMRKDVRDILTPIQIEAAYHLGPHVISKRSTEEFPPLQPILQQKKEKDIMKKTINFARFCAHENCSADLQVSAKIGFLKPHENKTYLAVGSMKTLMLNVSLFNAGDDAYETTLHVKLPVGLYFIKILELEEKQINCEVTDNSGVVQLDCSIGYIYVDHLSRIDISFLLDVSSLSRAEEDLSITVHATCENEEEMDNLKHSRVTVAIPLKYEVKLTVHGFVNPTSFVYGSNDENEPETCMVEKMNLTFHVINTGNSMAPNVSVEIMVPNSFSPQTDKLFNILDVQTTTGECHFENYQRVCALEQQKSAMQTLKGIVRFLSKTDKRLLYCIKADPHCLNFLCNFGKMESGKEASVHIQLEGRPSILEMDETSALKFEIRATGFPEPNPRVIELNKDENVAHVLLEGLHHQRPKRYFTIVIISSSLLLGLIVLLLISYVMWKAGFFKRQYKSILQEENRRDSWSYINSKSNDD

SMILES | pIC50 (Integrin alpha-4/beta-1 [1]) | also measured
COc1cccc(OC)c1-c1ccc(CC(Nc2ccc(S(C)(=O)=O)cc2)C(=O)O)cc1 (stereo not given) | 7.01 | –
COc1cccc(OC)c1-c1ccc(CC(Nc2cccnc2)C(=O)O)cc1 (stereo not given) | 6.09 | –
COc1cccc(NC(Cc2ccc(-c3c(OC)cccc3OC)cc2)C(=O)O)n1 (stereo not given) | 5.38 | –
COc1cccc(OC)c1-c1ccc(CC(Nc2ccc(C(=O)N3CCCC3)cc2)C(=O)O)cc1 (stereo not given) | 6.49 | –
COc1cccc(OC)c1-c1ccc(CC(Nc2ccc(S(=O)(=O)c3ccccc3)cc2)C(=O)O)cc1 (stereo not given) | 6.62 | –
COc1cccc(OC)c1-c1ccc(CC(Nc2ccc(S(=O)(=O)N3CCCC3)cc2)C(=O)O)cc1 (stereo not given) | 7.04 | –
COc1cccc(OC)c1-c1ccc(CC(Nc2ccccc2[N+](=O)[O-])C(=O)O)cc1 (stereo not given) | 5.45 | –
COc1cccc(OC)c1-c1ccc(CC(NC(=O)c2ccccc2)C(=O)O)cc1 (stereo not given) | 8.92 | –
COc1cccc(OC)c1-c1ccc(CC(Nc2ccncc2)C(=O)O)cc1 (stereo not given) | 6.77 | –
COc1cccc(OC)c1-c1ccc(CC(Nc2ccc([N+](=O)[O-])cc2)C(=O)O)cc1 (stereo not given) | 5.28 | –
CCCS(=O)(=O)c1cc(NC(Cc2ccc(-c3c(OC)cccc3OC)cc2)C(=O)O)ncn1 (stereo not given) | 9.41 | T1/2 (Rattus norvegicus [2]): 48 min; clearance [3]: 17 mL/min/kg; bioavailability [4]: 6%; Vdss (Rattus norvegicus [5]): 0.28 L/kg
COc1cccc(OC)c1-c1ccc(C[C@H](NC(C)=O)C(=O)O)cc1 | 7.92 | –
COc1cccc(OC)c1-c1ccc(CC(Nc2cc(Cl)cc(Cl)c2)C(=O)O)cc1 (stereo not given) | 5.19 | –
COc1cccc(OC)c1-c1ccc(CC(Nc2cc(C(F)(F)F)cc(C(F)(F)F)c2)C(=O)O)cc1 (stereo not given) | – | inhibition (Integrin alpha-4/beta-1 [6]): 46%
COc1cccc(OC)c1-c1ccc(CC(Nc2cccc(S(=O)(=O)N3CCCC3)c2)C(=O)O)cc1 (stereo not given) | 7.92 | T1/2 (Rattus norvegicus [2]): 54 min; clearance [3]: 73 mL/min/kg; bioavailability [4]: 24%; Vdss (Rattus norvegicus [5]): 0.55 L/kg
COc1cccc(OC)c1-c1ccc(CC(Nc2ccc(C(F)(F)F)cc2)C(=O)O)cc1 (stereo not given) | – | inhibition (Integrin alpha-4/beta-1 [6]): 45%
COc1cccc(OC)c1-c1ccc(CC(Nc2ccc(C(=O)N3CCCC3)cn2)C(=O)O)cc1 (stereo not given) | 7.64 | –
COc1cccc(OC)c1-c1ccc(CC(Nc2ccccn2)C(=O)O)cc1 (stereo not given) | 6.21 | –
COc1cccc(OC)c1-c1ccc(CC(Nc2ccccc2)C(=O)O)cc1 (stereo not given) | 5.05 | –
COc1cccc(OC)c1-c1ccc(CC(Nc2ccc(C(F)(F)F)cn2)C(=O)O)cc1 (stereo not given) | 5.50 | –
COc1cccc(OC)c1-c1ccc(CC(Nc2ccc(C#N)cc2)C(=O)O)cc1 (stereo not given) | 5.35 | –
COc1cccc(OC)c1-c1ccc(CC(Nc2cccc(C#N)c2)C(=O)O)cc1 (stereo not given) | 5.36 | –

Reference: ChEMBL document CHEMBL1135217, “N-aryl 2,6-dimethoxybiphenylalanine analogues as VLA-4 antagonists” (Bioorg Med Chem Lett, 2002)
